Results taken from patent US10925855B2, “Compositions comprising water dispersible nanoparticles of a retinoid compound” (GALDERMA RESEARCH & DEVELOPMENT, priority 2015, dated 2021).

Columns and labels:
[1] = Chemical stability by HPLC; assay type: physicochemical
Procedure: Chemical stability of nanosized compound A formulae were investigated by HPLC measurements. They were performed in an Agilent 1100 HPLC waters coupled with ZQ2000 MSD, C18, Phenomenex Gemini-NX 3 micron, 100×3 mm column.

[2] = Redispersibility in water; assay type: physicochemical; details: addition of water at room temperature

For `CC(C)(C)c1cc(-c2cc(-c3ccc(C(=O)O)cc3)ccc2OCCO)ccc1N1CCCC1` [Compound A, 3″-tert-butyl-4′-(2-hydroxyethoxy)-4″-pyrrolidin-1-yl[1,1′;3′,1″]-terphenyl-4-carboxylic acid], the “decomposition of the active ingredient in HPLC analysis” value (“decomposition of the active ingredient” for short) ([1]; 0.001 M sodium hydroxide solution as antisolvent) was “decomposition of the active could not be observed”, the “decomposition of the active ingredient” value ([1]; 0.01 M sodium hydroxide solution as antisolvent) was “decomposition of the active could not be observed” and the “decomposition of the active ingredient” value ([1]; 0.1 M sodium hydroxide used as antisolvent (data not shown)) was “Significant decomposition”. For the same compound, the Redispersibility [2] was “not wetted by water”.
